#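 The compound was tested at five concentrations on cells cultured in 96-well plates, with a 48-hour exposure period. Abbreviation: GI50, concentration required for 50% inhibition of growth.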 The source made the active and inactive calls. Rule as the data show it: active = GI50 up to about 1.1 µM and inactive = higher.
# How the values were obtained:
# Assay in all cases: NCI anticancer screen, dose series, 48 h
# HCC 2998 = tested on: HCC 2998
# OVCAR-3 = tested on: OVCAR-3
# SK-OV-3 = tested on: SK-OV-3
# COLO 205 = tested on: COLO 205
# A549 = tested on: A549
# HL-60 = tested on: HL-60
# Malme-3M = tested on: Malme-3M
# SF-295 = tested on: SF-295
# SW-620 = tested on: SW-620
# NCI/ADR-RES = tested on: NCI/ADR-RES
# SNB-19 = tested on: SNB-19
# RPMI-8226 = tested on: RPMI-8226
# SF-268 = tested on: SF-268
# A498 = tested on: A498
# HCT-15 = tested on: HCT-15
# UACC-257 = tested on: UACC-257
# SR = tested on: SR
# SF-539 = tested on: SF-539
# K562 = tested on: K562
# IGROV-1 = tested on: IGROV-1
# SN12C = tested on: SN12C
# UO-31 = tested on: UO-31
# ACHN = tested on: ACHN
# CAKI-1 = tested on: CAKI-1
# EKVX = tested on: EKVX
# MOLT-4 = tested on: MOLT-4
# SK-MEL-28 = tested on: SK-MEL-28
# PC-3 = tested on: PC-3
# NCI-H226 = tested on: NCI-H226
# OVCAR-4 = tested on: OVCAR-4
# OVCAR-5 = tested on: OVCAR-5
# HT-29 = tested on: HT-29
# HOP-92 = tested on: HOP-92
# T47D = tested on: T47D
# NCI-H522 = tested on: NCI-H522
# MDA-MB-435 = tested on: MDA-MB-435
# NCI-H23 = tested on: NCI-H23
# U-251 = tested on: U-251
# DU-145 = tested on: DU-145
# NCI-H460 = tested on: NCI-H460
# BT-549 = tested on: BT-549
# Hs-578T = tested on: Hs-578T
# KM12 = tested on: KM12
# HCT-116 = tested on: HCT-116
# LOX IMVI = tested on: LOX IMVI
# HOP-62 = tested on: HOP-62
# RXF 393 = tested on: RXF 393
# SK-MEL-2 = tested on: SK-MEL-2
# CCRF-CEM = tested on: CCRF-CEM
# SK-MEL-5 = tested on: SK-MEL-5
# TK-10 = tested on: TK-10
# UACC-62 = tested on: UACC-62
# MCF7 = tested on: MCF7
# MDA-MB-231 = tested on: MDA-MB-231
# OVCAR-8 = tested on: OVCAR-8
# M14 = tested on: M14
# 786-0 = tested on: 786-0
# MDA-N = tested on: MDA-N
# SNB-75 = tested on: SNB-75
compound,measurement,setting,value
COc1ccc(-c2c(C#N)c(N)nc(Sc3ccccc3N)c2C#N)cc1,GI50,HCC 2998,> 43.1 µM (inactive)
same,GI50,OVCAR-3,22.1 µM (inactive)
same,GI50,SK-OV-3,9.53 µM (inactive)
same,GI50,COLO 205,> 100 µM (inactive)
same,GI50,A549,17.6 µM (inactive)
same,GI50,HL-60,> 100 µM (inactive)
same,GI50,Malme-3M,10.2 µM (inactive)
same,GI50,SF-295,10.2 µM (inactive)
same,GI50,SW-620,> 90.6 µM (inactive)
same,GI50,NCI/ADR-RES,7.69 µM (inactive)
same,GI50,SNB-19,16.1 µM (inactive)
same,GI50,RPMI-8226,> 75.5 µM (inactive)
same,GI50,SF-268,5.77 µM (inactive)
same,GI50,A498,4.73 µM (inactive)
same,GI50,HCT-15,24 µM
same,GI50,UACC-257,39.3 µM (inactive)
same,GI50,SR,43.7 µM (inactive)
same,GI50,SF-539,12.1 µM (inactive)
same,GI50,K562,32.3 µM (inactive)
same,GI50,IGROV-1,10.8 µM (inactive)
same,GI50,SN12C,9.66 µM (inactive)
same,GI50,UO-31,13.3 µM (inactive)
same,GI50,ACHN,13.1 µM (inactive)
same,GI50,CAKI-1,8.36 µM (inactive)
same,GI50,EKVX,15.7 µM (inactive)
same,GI50,MOLT-4,> 71 µM (inactive)
same,GI50,SK-MEL-28,> 50.9 µM (inactive)
same,GI50,PC-3,12.9 µM (inactive)
same,GI50,NCI-H226,52.8 µM (inactive)
same,GI50,OVCAR-4,13.6 µM (inactive)
same,GI50,OVCAR-5,> 53.5 µM (inactive)
same,GI50,HT-29,7.69 µM (inactive)
same,GI50,HOP-92,4.79 µM (inactive)
same,GI50,T47D,2.82 µM (inactive)
same,GI50,NCI-H522,10 µM (inactive)
same,GI50,MDA-MB-435,> 83 µM (inactive)
same,GI50,NCI-H23,> 48.4 µM (inactive)
same,GI50,U-251,13.4 µM (inactive)
same,GI50,DU-145,> 47.6 µM (inactive)
same,GI50,NCI-H460,19 µM (inactive)
same,GI50,BT-549,9.35 µM (inactive)
same,GI50,Hs-578T,6.05 µM (inactive)
same,GI50,KM12,44.9 µM (inactive)
same,GI50,HCT-116,10.7 µM (inactive)
same,GI50,LOX IMVI,16.8 µM (inactive)
same,GI50,HOP-62,6.1 µM (inactive)
same,GI50,RXF 393,6.46 µM (inactive)
same,GI50,SK-MEL-2,9.57 µM (inactive)
same,GI50,CCRF-CEM,> 100 µM (inactive)
same,GI50,SK-MEL-5,28.6 µM (inactive)
same,GI50,TK-10,10.9 µM (inactive)
same,GI50,UACC-62,9.46 µM (inactive)
same,GI50,MCF7,14.6 µM (inactive)
same,GI50,MDA-MB-231,11.7 µM (inactive)
same,GI50,OVCAR-8,8.11 µM (inactive)
same,GI50,M14,27.9 µM (inactive)
same,GI50,786-0,4.82 µM (inactive)
same,GI50,MDA-N,> 100 µM (inactive)
Clc1ncnc2c1nc(C#Cc1ccccc1)n2C1CCCCO1 (stereo not drawn),GI50,HCC 2998,2.1 µM (inactive)
same,GI50,OVCAR-3,1.37 µM (inactive)
same,GI50,SK-OV-3,7.67 µM (inactive)
same,GI50,COLO 205,1.62 µM (inactive)
same,GI50,A549,1.99 µM (inactive)
same,GI50,HL-60,2.59 µM (inactive)
same,GI50,Malme-3M,1.95 µM (inactive)
same,GI50,SF-295,4.47 µM (inactive)
same,GI50,SW-620,1.86 µM (inactive)
same,GI50,NCI/ADR-RES,2.75 µM (inactive)
same,GI50,SNB-19,2.53 µM (inactive)
same,GI50,SF-268,2.32 µM (inactive)
same,GI50,A498,2.63 µM (inactive)
same,GI50,HCT-15,1.14 µM
same,GI50,UACC-257,2.61 µM (inactive)
same,GI50,SF-539,1.91 µM (inactive)
same,GI50,K562,1.38 µM (inactive)
same,GI50,SN12C,1.78 µM (inactive)
same,GI50,UO-31,1.93 µM (inactive)
same,GI50,ACHN,1.69 µM (inactive)
same,GI50,CAKI-1,1.97 µM (inactive)
same,GI50,EKVX,1.95 µM (inactive)
same,GI50,MOLT-4,2.02 µM (inactive)
same,GI50,SNB-75,2.6 µM (inactive)
same,GI50,SK-MEL-28,2.21 µM (inactive)
same,GI50,PC-3,3.27 µM (inactive)
same,GI50,NCI-H226,2.49 µM (inactive)
same,GI50,OVCAR-4,1.87 µM (inactive)
same,GI50,OVCAR-5,2.42 µM (inactive)
same,GI50,HT-29,1.91 µM (inactive)
same,GI50,HOP-92,1.8 µM (inactive)
same,GI50,T47D,1.7 µM (inactive)
same,GI50,NCI-H522,1.81 µM (inactive)
same,GI50,MDA-MB-435,2.35 µM (inactive)
same,GI50,NCI-H23,1.99 µM (inactive)
same,GI50,U-251,2.08 µM (inactive)
same,GI50,DU-145,1.47 µM (inactive)
same,GI50,NCI-H460,3.14 µM (inactive)
same,GI50,BT-549,1.9 µM (inactive)
same,GI50,Hs-578T,3.95 µM (inactive)
same,GI50,KM12,1.63 µM (inactive)
same,GI50,HCT-116,1.82 µM (inactive)
same,GI50,LOX IMVI,2.02 µM (inactive)
same,GI50,HOP-62,2.38 µM (inactive)
same,GI50,RXF 393,1.51 µM (inactive)
same,GI50,SK-MEL-2,2.47 µM (inactive)
same,GI50,CCRF-CEM,2.33 µM (inactive)
same,GI50,SK-MEL-5,2.21 µM (inactive)
same,GI50,TK-10,2.63 µM (inactive)
same,GI50,UACC-62,2.42 µM (inactive)
same,GI50,MCF7,1.37 µM (inactive)
same,GI50,MDA-MB-231,3.95 µM (inactive)
same,GI50,OVCAR-8,3.3 µM (inactive)
same,GI50,M14,2.14 µM (inactive)
same,GI50,786-0,1.42 µM (inactive)
same,GI50,MDA-N,1.94 µM (inactive)
Cc1ccc2nc(Cl)c(/C=N/N3C(=O)/C(=C/c4cccc([N+](=O)[O-])c4)N=C3c3ccccc3)cc2c1,GI50,HCC 2998,67.5 µM (inactive)
same,GI50,OVCAR-3,30.5 µM (inactive)
same,GI50,SK-OV-3,94.2 µM (inactive)
same,GI50,COLO 205,38.7 µM (inactive)
same,GI50,A549,60.1 µM (inactive)
same,GI50,HL-60,39.2 µM (inactive)
same,GI50,SF-295,40.9 µM (inactive)
same,GI50,SW-620,75.5 µM (inactive)
same,GI50,NCI/ADR-RES,36.5 µM (inactive)
same,GI50,SNB-19,> 100 µM (inactive)
same,GI50,RPMI-8226,31.3 µM (inactive)
same,GI50,SF-268,97.1 µM (inactive)
same,GI50,A498,7.71 µM (inactive)
same,GI50,HCT-15,42.2 µM
same,GI50,UACC-257,61.1 µM (inactive)
same,GI50,SR,19.8 µM (inactive)
same,GI50,SF-539,> 100 µM (inactive)
same,GI50,K562,47.6 µM (inactive)
same,GI50,IGROV-1,31.2 µM (inactive)
same,GI50,SN12C,35.7 µM (inactive)
same,GI50,UO-31,38 µM (inactive)
same,GI50,ACHN,49.1 µM (inactive)
same,GI50,CAKI-1,66.4 µM (inactive)
same,GI50,EKVX,54.6 µM (inactive)
same,GI50,MOLT-4,29.2 µM (inactive)
same,GI50,SNB-75,59.6 µM (inactive)
same,GI50,SK-MEL-28,> 100 µM (inactive)
same,GI50,PC-3,25.4 µM (inactive)
same,GI50,OVCAR-4,58.7 µM (inactive)
same,GI50,OVCAR-5,> 100 µM (inactive)
same,GI50,HT-29,45.3 µM (inactive)
same,GI50,HOP-92,46.3 µM (inactive)
same,GI50,T47D,59.8 µM (inactive)
same,GI50,MDA-MB-435,20.7 µM (inactive)
same,GI50,U-251,89.7 µM (inactive)
same,GI50,DU-145,> 100 µM (inactive)
same,GI50,NCI-H460,34.4 µM (inactive)
same,GI50,BT-549,> 100 µM (inactive)
same,GI50,Hs-578T,94.6 µM (inactive)
same,GI50,KM12,36.6 µM (inactive)
same,GI50,HCT-116,27.9 µM (inactive)
same,GI50,LOX IMVI,87.1 µM (inactive)
same,GI50,HOP-62,50.2 µM (inactive)
same,GI50,SK-MEL-2,22.2 µM (inactive)
same,GI50,CCRF-CEM,25.9 µM (inactive)
same,GI50,SK-MEL-5,43.5 µM (inactive)
same,GI50,TK-10,> 100 µM (inactive)
same,GI50,UACC-62,34 µM (inactive)
same,GI50,MCF7,20.3 µM (inactive)
same,GI50,MDA-MB-231,93.1 µM (inactive)
same,GI50,OVCAR-8,72.4 µM (inactive)
same,GI50,M14,63.1 µM (inactive)
same,GI50,786-0,> 100 µM (inactive)
same,GI50,MDA-N,20.4 µM (inactive)

# Reference: ChEMBL document CHEMBL1201862, “PubChem BioAssay data set” (2004)
